The values that follow come from patent publication US20240417405A1, “Substituted Spiro Derivatives” (Janssen Pharmaceutica NV, priority 2021, published 2024).

One assay has as its system KO-52 cells. As to the kind of experiment: Proliferation assay, spheroid-like growth, KO-52 (MLL wildtype control cell line). To be noted: Homo sapiens, 192 h, KO-52 control cells, 8 days, confluence as measure of spheroid size; read-out: spheroid assay_OneTime KO-52 IC50. The assay is classed as cell-based, human. Put shortly: (§1)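 200 MOLM14 or 300 KO-52 cells/well, ultra-low attachment, compound dilutions, DMSO 0.3%; 8 d, 37 °C, 5% CO2. Read: live-cell imaging confluence (spheroid size) day 8. Absolute IC50, min 0%/max 100% fixed, variable slope.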

For a further assay, the system named is MOLM14 cells. Briefly: Proliferation assay, spheroid-like growth, MOLM14 (MLL-AF9 rearranged). Format: cell-based, human. The note with it: Homo sapiens, MOLM-14, 192 h, 8 days, confluence as measure of spheroid size, read-out: spheroid assay_OneTime MOLM14 IC50. In outline: as §1
Assay [1] concerns the target T1, menin/MLL (terbium chelate-labeled menin, FITC-MBM1 peptide) (Homo sapiens, UniProt O00255, T541A).
T1 construct: Menin (a.a 1-610-6xhis tag)
T1 sequence (O00255 with tags, fused parts or gaps T541A): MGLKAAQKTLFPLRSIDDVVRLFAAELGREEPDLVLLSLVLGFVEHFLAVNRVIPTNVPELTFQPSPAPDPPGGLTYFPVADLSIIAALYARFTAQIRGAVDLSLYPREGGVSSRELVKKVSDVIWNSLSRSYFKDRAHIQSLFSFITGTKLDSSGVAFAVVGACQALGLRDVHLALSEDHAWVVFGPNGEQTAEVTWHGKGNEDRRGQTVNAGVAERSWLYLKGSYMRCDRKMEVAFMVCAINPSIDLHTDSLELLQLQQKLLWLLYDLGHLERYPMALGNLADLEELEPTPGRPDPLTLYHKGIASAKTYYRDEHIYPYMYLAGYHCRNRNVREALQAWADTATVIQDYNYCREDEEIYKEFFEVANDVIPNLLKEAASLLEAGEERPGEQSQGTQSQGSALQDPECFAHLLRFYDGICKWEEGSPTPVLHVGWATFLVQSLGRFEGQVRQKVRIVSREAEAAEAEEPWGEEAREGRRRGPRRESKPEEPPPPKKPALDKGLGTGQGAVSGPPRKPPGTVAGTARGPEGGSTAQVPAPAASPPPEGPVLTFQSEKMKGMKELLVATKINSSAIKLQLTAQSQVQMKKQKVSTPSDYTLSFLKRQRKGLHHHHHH
Briefly: Menin/MLL homogenous time-resolved fluorescence (HTRF) assay. The assay is classed as binding. The note with it: 30 min incubation. In outline:
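Tb-cryptate menin (1-610, 6xHis) 200 pM + cmpd, 30 min RT; + FITC-MBM1 75 nM, 15 min RT. 40 mM Tris pH 7.5, 50 mM NaCl, 1 mM DTT, 0.05% Pluronic F-127, 0.5% DMSO. HTRF 520/490; 11-pt 4-fold from 10 μM; IC50 fit.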
In general terms: TR-FRET usually uses a lanthanide donor and a delayed reading to cut background.

Bounds are passed on as bounds.

As a reminder, the IC50 is the concentration at which inhibition is half-maximal. Consider `CC(C)C([C@H]1C[C@H](N2CC(O)C2)C1)N1CC2(CCN(c3ncnnc3Oc3ccc(F)cc3-c3cncnc3C3CC3)C2)C1` (stereo partly drawn) [Compound 126], for which the results for the IC50 (with KO-52 cells; with MOLM14 cells; in assay [1]) were 14.9 µM, 150 nM and 0.4 nM, respectively.
For `CC(C)C([C@H]1C[C@@H](N2CCC(F)(F)CC2)C1)N1CC2(CCN(c3ncnnc3Oc3ccc(F)cc3-c3cncnc3C3CC3)C2)C1` (stereo partly drawn) [Compound 127], in that order: 4.66 µM, 160 nM and 0.5 nM.
Turning to `CC(C)C([C@H]1C[C@H](N2CCC(F)(F)CC2)C1)N1CC2(CCN(c3ncnnc3Oc3ccc(F)cc3-c3cncnc3C3CC3)C2)C1` (stereo partly drawn) [Compound 128], the IC50 was determined as 7.89 µM with KO-52 cells, 450 nM in the assay on MOLM14 cells and 1.3 nM in assay [1].
The like results for `CC(C)C([C@H]1C[C@@H](N2CCC(C)(O)CC2)C1)N1CC2(CCN(c3ncnnc3Oc3ccc(F)cc3-c3cncnc3C3CC3)C2)C1` (stereo partly drawn) [Compound 129] were, in that order, 3.39 µM, 11 nM and 0.2 nM.
In the case of `CC(C)C([C@H]1C[C@@H](N2CCC(C(=O)N(C)C)CC2)C1)N1CC2(CCN(c3ncnnc3Oc3ccc(F)cc3-c3cncnc3C3CC3)C2)C1` (stereo partly drawn) [Compound 131], the IC50 in the assay with KO-52 cells was 6.2 µM; with MOLM14 cells it was 50 nM; in assay [1], 0.2 nM.
The like results for `CC(C)C([C@H]1C[C@@H](N2CCC(S(C)(=O)=O)CC2)C1)N1CC2(CCN(c3ncnnc3Oc3ccc(F)cc3-c3cncnc3C3CC3)C2)C1` (stereo partly drawn) [Compound 132] were, in that order, 8.1 µM, 76 nM and 0.3 nM.
For `CC(C)C([C@H]1C[C@@H](NCC(C)(C)O)C1)N1CC2(CCN(c3ncnnc3Oc3ccc(F)cc3-c3cncnc3C3CC3)C2)C1` (stereo partly drawn) [Compound 133], in that order: 7.38 µM, 21 nM and 0.1 nM.
For `CC(C)C([C@H]1C[C@@H](N2CCCCC2)C1)N1CC2(CCN(c3ncnnc3Oc3ccc(F)cc3-c3cncnc3C3CC3)C2)C1` (stereo partly drawn) [Compound 135], the IC50 in the assay on KO-52 cells was determined as 1 µM; in the assay on MOLM14 cells, 8 nM; in assay [1], 0.3 nM.
For `CC(C)C([C@H]1C[C@@H](N(C)C)C1)N1CC2(CCN(c3ncnnc3Oc3ccc(F)cc3-c3cncnc3C3CC3)C2)C1` (stereo partly drawn) [Compound 136], in that order: 7.07 µM, 8 nM and 0.1 nM.
For `CC(C)C([C@H]1C[C@@H](N2C[C@H]3COC[C@H]3C2)C1)N1CC2(CCN(c3ncnnc3Oc3ccc(F)cc3-c3cnccc3C3CC3)C2)C1` (stereo partly drawn) [Compound 138], in that order: 0.46 µM, 2 nM and 0.1 nM.
The like results for `CC(C)C([C@H]1C[C@H](N2C[C@H]3COC[C@H]3C2)C1)N1CC2(CCN(c3ncnnc3Oc3ccc(F)cc3-c3cnccc3C3CC3)C2)C1` (stereo partly drawn) [Compound 139] were, in that order, 1.31 µM, 41 nM and 0.1 nM.
Regarding `CC(C)C([C@H]1C[C@@H](N2C[C@H]3COC[C@H]3C2)C1)N1CC2(CCN(c3ncnnc3Oc3ccc(F)cc3-c3cncc(C#N)c3C3CC3)C2)C1` (stereo partly drawn) [Compound 142], the 50% inhibitory concentration (IC50) was determined as 1.35 µM in the assay on KO-52 cells, 7 nM with MOLM14 cells and 0.1 nM in assay [1].
For `CC(C)C([C@H]1C[C@H](N2C[C@H]3COC[C@H]3C2)C1)N1CC2(CCN(c3ncnnc3Oc3ccc(F)cc3-c3cncc(C#N)c3C3CC3)C2)C1` (stereo partly drawn) [Compound 143], in that order: 1.53 µM, 27 nM and 0.1 nM.
For `CC(=O)N1CCN([C@H]2C[C@@H](C(C(C)C)N3CC4(CCN(c5ncnnc5Oc5ccc(F)cc5-c5cncc(C#N)c5C5CC5)C4)C3)C2)CC1` (stereo partly drawn) [Compound 144], in that order: 12.3 µM, 200 nM and 0.8 nM.
For `CC(C)C(C1CC2(CCN2CC2COC2)C1)N1CC2(CCN(c3ncnnc3Oc3ccc(F)cc3-c3cncnc3C3CC3)C2)C1` (stereo not drawn) [Compound 156], in that order: 7.96 µM, 100 nM and 0.8 nM.
With `CC(C)[C@H]([C@H]1C[C@@H](N2CCC(C)(C(=O)N(C)C)C2)C1)N1CC2(CCN(c3ncnnc3Oc3ccc(F)cc3-c3cncnc3C3CC3)C2)C1` (stereo partly drawn) [Compound 161], the results for the half-inhibitory concentration (IC50) (in the assay on KO-52 cells; with MOLM14 cells; in assay [1]) were 3.36 µM, 4 nM and 0.1 nM, respectively.
As to `CC(C)[C@H]([C@H]1C[C@H](N2CCC(C)(C(=O)N(C)C)C2)C1)N1CC2(CCN(c3ncnnc3Oc3ccc(F)cc3-c3cncnc3C3CC3)C2)C1` (stereo partly drawn) [Compound 162], the IC50 was 6.4 µM with KO-52 cells, 110 nM in the assay on MOLM14 cells and 0.1 nM in assay [1].
For `CC(C)[C@H]([C@H]1C[C@@H](N2C[C@H]3COC[C@H]3C2)C1)N1CC2(CCN(c3ncnnc3Oc3ccc(F)cc3-c3cnc(C#N)nc3C3CC3)C2)C1` [Compound 167], in that order: 4.11 µM, less than 2 nM and 0.1 nM.
For `CC(C)[C@@H]([C@H]1C[C@@H](N2C[C@H]3COC[C@H]3C2)C1)N1CC2(CCN(c3ncnnc3Oc3ccc(F)cc3-c3cnc(C#N)nc3C3CC3)C2)C1` [Compound 168], in that order: 2.59 µM, 53 nM and 0.6 nM.
The like results for `CC(=O)N[C@H]1C[C@@H](C(C(C)C)N2CC3(CCN(c4ncnnc4Oc4ccc(F)cc4-c4nccnc4C4CC4)C3)C2)C1` (stereo partly drawn) [Compound 176] were, in that order, 10.4 µM, 80 nM and 0.5 nM.
Regarding `CC(=O)N[C@H]1C[C@@H](C(C(C)C)N2CC3(CCN(c4ncnnc4Oc4ccc(F)cc4-c4ncncc4C4CC4)C3)C2)C1` (stereo partly drawn) [Compound 179], the IC50 with KO-52 cells came out at 12.6 µM; in the assay on MOLM14 cells, 73 nM; in assay [1], 0.4 nM.
For `CC(C)C([C@H]1C[C@@H](NC(=O)C2CC2)C1)N1CC2(CCN(c3ncnnc3Oc3ccc(F)cc3-c3cnncc3C3CC3)C2)C1` (stereo partly drawn) [Compound 184], in that order: 0.6 µM, 10 nM and 0.2 nM.
The like results for `CC(=O)N[C@H]1C[C@@H](C(C(C)C)N2CC3(CCN(c4ncnnc4Oc4ccc(F)cc4-c4cnncc4C4CC4)C3)C2)C1` (stereo partly drawn) [Compound 187] were, in that order, greater than 15 µM, 65 nM and 0.8 nM.
Take `CC(=O)N[C@H]1C[C@@H](C(C(C)C)N2CC3(CCN(c4ncnnc4Oc4ccc(F)cc4-c4cccc(=O)n4C4CC4)C3)C2)C1` (stereo partly drawn) [Compound 188]: the results for the 50% inhibitory concentration (IC50) (in the assay on KO-52 cells; in the assay on MOLM14 cells; in assay [1]) were greater than 15 µM, 520 nM and 0.2 nM, respectively.
The like results for `CC(C)C([C@H]1C[C@@H](NC(=O)C2CC2)C1)N1CC2(CCN(c3ncnnc3Oc3ccc(F)cc3-c3cccc(=O)n3C3CC3)C2)C1` (stereo partly drawn) [Compound 189] were, in that order, greater than 15 µM, 140 nM and 0.4 nM.
For the molecule `CC(C)C([C@H]1C[C@@H](Nc2cncnc2)C1)N1CC2(CCN(c3ncnnc3Oc3ccc(F)cc3-c3cncnc3C3CC3)C2)C1` (stereo partly drawn) [Compound 193], the IC50 in the assay with KO-52 cells is greater than 15 µM; with MOLM14 cells, 50 nM; in assay [1], 0.2 nM.
The like results for `CC(C)C([C@H]1C[C@@H](Nc2ccn(C)n2)C1)N1CC2(CCN(c3ncnnc3Oc3ccc(F)cc3-c3cncnc3C3CC3)C2)C1` (stereo partly drawn) [Compound 194] were, in that order, greater than 15 µM, 450 nM and 0.9 nM.
`CC(C)C(C1CC(O)(c2cnn(C)c2)C1)N1CC2(CCN(c3ncnnc3Oc3ccc(F)cc3-c3cncnc3C3CC3)C2)C1` (stereo not drawn) [Compound 195]: the IC50 with KO-52 cells was greater than 15 µM; in the assay on MOLM14 cells it was 510 nM; in assay [1], 1.3 nM.
For `CC(=O)N[C@H]1C[C@@H](C(C(C)C)N2CC3(CCN(c4ncnnc4Oc4ccc(F)cc4-c4c[nH]c(=O)nc4C4CC4)C3)C2)C1` (stereo partly drawn) [Compound 196], in that order: greater than 15 µM, greater than 940 nM and 13.6 nM.
For `CC(C)C(C1CC2(CCN2)C1)N1CC2(CCN(c3ncnnc3Oc3ccc(F)cc3-c3cncnc3C3CC3)C2)C1` (stereo not drawn) [Compound 198], in that order: greater than 15 µM, 250 nM and 0.3 nM.
